Assay results: US20250206708A1, “AN OXAZIRIDINE PLATFORM FOR TARGETING FUNCTIONAL ALLOSTERIC METHIONINE SITES” (Novartis AG, priority 2022, published 2025)

How the values were obtained:
CDK6 [1] = biological target: T1, CDK6 (Homo sapiens, UniProt Q00534); test: Gel-based ABPP, isoform specificity on CDK6; assay type: binding; settings: dose-dependent treatment
Procedure: Activity-based protein profiling (ABPP) was performed as follows. CDK4 was diluted in PBS to 50 nM, then 50 μL was added to each well of a 96-well PCR plate. Ligands were dissolved fresh in DMSO to 5 μM, and 1 μL was added so each well contained a unique ligand at the indicated concentration. Wells were mixed and allowed to incubate 1 h at 23° C. Ligands were then chased with fresh Compound 301 with 1 μL of 5 μM added to each well (100 nM final), wells mixed and allowed to incubate 1 h at 23° C. Excess oxaziridine was quenched with N-acetyl methionine via addition of 1 μL of 10 mM DMSO stock (200 μM final), wells mixed and allowed to incubate 1 h at 23° C. A stock was prepared 1:5 of 12.5 μM DBCO-Cy3 in DMSO: 1.2% SDS/PBS. To each well was added 6 μL of this stock, the wells mixed and allowed to incubate overnight protected from light at 23° C. The next morning 30 μL of 4×Laemmli's buffer containing 10% BME was added to each well. The plate was sealed and brought to 95° C. for 6 min. Samples were loaded and separated on precast 4-20% TGX gels and scanned by ChemiDoc MP for measuring in-gel fluorescence. After that, the total protein level on the gel was assayed by silver staining according to the manufacturer's protocol and scanned by ChemiDoc MP.
The isoform specificity was tested with two closely-related congeners, CDK1 and CDK6.

CDK6 [2] = biological target: T1, CDK6; test: Shotgun proteomics (MS/MS) modification of purified CDK6; assay type: binding; settings: shotgun proteomics on purified protein

T1 sequence (Q00534 whole entry, canonical isoform): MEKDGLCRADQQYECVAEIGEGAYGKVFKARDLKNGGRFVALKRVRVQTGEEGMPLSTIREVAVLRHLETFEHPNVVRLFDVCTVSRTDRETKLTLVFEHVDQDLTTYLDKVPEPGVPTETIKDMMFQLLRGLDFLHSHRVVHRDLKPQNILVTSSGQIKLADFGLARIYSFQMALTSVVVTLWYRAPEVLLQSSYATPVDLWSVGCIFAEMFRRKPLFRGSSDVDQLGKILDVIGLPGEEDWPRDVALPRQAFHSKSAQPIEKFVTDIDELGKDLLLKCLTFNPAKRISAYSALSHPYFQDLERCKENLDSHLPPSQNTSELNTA

- labeling against CDK6 by gel analysis (CDK6 [1]): no dose-dependent labeling
- modifications on CDK6 (CDK6 [2]): No modifications
Compound: O=C(N1CC2COCC2C1)N1OC1c1ccccc1 (centres unmarked) [Compound 148]
